# Source: EP0351029B1, “Novel glucose isomerase enzymes and their use” (GENENCOR INTERNATIONAL, INC., priority 1988, dated 1990)
# How the values were obtained:
# [1] = target: T1, Actinoplanes missouriensis glucose isomerase (EcoAmi(DSM) GI), mutant G70S;A73S;G74T (Actinoplanes missouriensis, UniProt P12851, A73S/G70S/G74T); type: biochemical; details: D-xylose as substrate, coupled assay, 35°C, pH 7.5, 10mM MgSO4
# T1 construct: made in house; host or cells: E. coli K514 (mutated pMa5-I / pMc5-I)
# T1 sequence (P12851 whole entry G70S/A73S/G74T): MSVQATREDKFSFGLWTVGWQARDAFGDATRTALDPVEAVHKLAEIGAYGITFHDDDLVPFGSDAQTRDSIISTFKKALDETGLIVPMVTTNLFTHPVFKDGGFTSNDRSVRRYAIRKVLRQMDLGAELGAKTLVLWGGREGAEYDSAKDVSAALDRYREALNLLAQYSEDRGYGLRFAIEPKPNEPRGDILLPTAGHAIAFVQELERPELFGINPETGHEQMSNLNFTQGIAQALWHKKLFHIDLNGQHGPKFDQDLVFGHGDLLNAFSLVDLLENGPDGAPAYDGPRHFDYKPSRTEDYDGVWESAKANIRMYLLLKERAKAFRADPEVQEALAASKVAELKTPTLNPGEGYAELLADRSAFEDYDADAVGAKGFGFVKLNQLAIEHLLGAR
# Procedure: (§1) In the D-Sorbitol Dehydrogenase Coupled Assay, enzymatic determination of D-xylulose was performed at 35°C as previously described (Kersters-Hilderson et al., Enzyme Microb. Technol. 9 (1987) 145) in 50mM triethanolamine, pH 7.5, 10mM MgSO4, and 0.1 M xylose, in the presence of ± 2 x 10^-8 M D-sorbitol dehydrogenase (L-iditol : NAD oxido-reductase, EC 1.1.14), and 0.15 nM NADH, except that the incubation buffer also included 1mM ethylenebis(oxyethylene-nitrilo)tetraacetic acid (EGTA). Glucose isomerase final concentration in this assay was ± 2.5 x 10^-3 mg/ml, and precisely determined as described above.
# (§2) With glucose as a substrate GI activity can be assayed by the measurement of D-fructose produced during the isomerization reaction using the cysteine-carbazole method (CCM) which is based on the reaction of ketosugars with carbazole in acids to yield a purple product (Dische and Borenfreund, 1951).
# (§3) • Spa = specific activity in micromoles of product (D-xylulose or D-fructose) per minute (unit), per mg of enzyme. • Vmax is expressed in units per mg of enzyme. • KM is the Michaelis constant, expressed in mM. • ND = not determined.
# [2] = target: T2, Actinoplanes missouriensis glucose isomerase (EcoAmi(DSM) GI), wildtype (WT-GI) (Actinoplanes missouriensis, UniProt P12851); assay: Catalytic parameters with D-xylose (D-sorbitol dehydrogenase coupled assay) or D-glucose (cysteine-carbazole method) as substrate; type: biochemical; details: 35°C, pH 7.5, 10mM MgSO4
# T2 construct: made in house; host or cells: E. coli K514 (pMa5-I / pMc5-I)
# T2 sequence (P12851 whole entry): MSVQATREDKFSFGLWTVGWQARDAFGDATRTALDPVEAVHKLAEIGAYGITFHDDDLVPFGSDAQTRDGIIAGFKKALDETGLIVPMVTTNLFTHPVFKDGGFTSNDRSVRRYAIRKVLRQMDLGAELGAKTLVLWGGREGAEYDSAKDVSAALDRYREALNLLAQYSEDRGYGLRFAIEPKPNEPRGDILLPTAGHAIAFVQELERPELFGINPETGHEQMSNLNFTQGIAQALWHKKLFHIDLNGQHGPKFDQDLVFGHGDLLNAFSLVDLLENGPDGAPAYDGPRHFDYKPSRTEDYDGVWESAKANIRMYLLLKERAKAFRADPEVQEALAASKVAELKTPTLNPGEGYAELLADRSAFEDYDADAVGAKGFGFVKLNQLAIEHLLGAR
# Procedure: as §1, §2, §3
smiles,measurement,setting,value
"O=C[C@H](O)[C@@H](O)[C@H](O)CO [Xylose, D-xylose]",Km (Xylose),[1],5.3 mM
same,Vmax (Xylose),[1],24.9 units per mg of enzyme
same,Km,[2],4.8 mM
same,Vmax (Xylose),[2],24.2 units per mg of enzyme
